Experimental data as given in US8343475B2, “Small cationic antimicrobial peptides” (priority 2006, dated 2013).
Values after ≈ are worked out from the molar mass of the structure shown. Residues, ends and D or L forms follow the SMILES beside them.

How the values were obtained:
[1] = system: ESBL Klebsiella pneumonia clinical strain 63575; assay type: cell-based
Procedure: (§1) Minimal inhibitory concentration (MIC) determination. The MIC of the peptides were measured using a modified broth microdilution method in Mueller Hinton (MH) medium (Wu M, Hancock R E W. 1999. Interaction of the cyclic antimicrobial cationic peptide bactenecin with the outer and cytoplasmic membrane. J Biol Chem 274, 29-35). Briefly, the peptides were dissolved and stored in glass vials. The assay was performed in sterile 96-well polypropylene microtitre plates were used. Serial dilutions of the peptides to be assayed were performed in 0.01% acetic acid (Fisher) containing 0.2% bovine serum albumin (Boehringer Mannheim GmbH) at 10× the desired final concentration. Ten microlitres of the 10× peptides were added to each well of a 96-well polypropylene plate containing 90 μl of MH media per well. Bacteria were added to the plate from an overnight culture at 2-7×10^5 colony forming units/ml and incubated over night at 37° C. The MIC was taken as the concentration at which no growth was observed.
(§2) The selected peptides were synthesized and assayed against several major antibiotic-resistant pathogens. Initially, the peptides were screened against the laboratory strain of P. aeruginosa PAO1 to compare the results with the training data. […] The antibacterial activity in the form of minimal inhibitory concentration (MIC) of the other studied peptides was assessed in greater depth (Table 9) against many highly antibiotic resistanct pathogens.

[2] = system: ESBL E. coli clinical strain 64771; assay type: cell-based; details: ESBL clinical strain 64771
Procedure: as §1, §2

[3] = system: multidrug resistant Pseudomonas maltophilia ATCC13637; assay type: cell-based
Procedure: as §1, §2

[4] = system: ESBL E. cloacae; assay type: cell-based, Enterobacter cloacae
Procedure: as §1
(§3) All peptides derived from the 1st, 2nd, and 3rd quartiles were further evaluated for their antibacterial activities against several highly antibitoic resistant pathogens (Table 3). These included clinical isolates of MRSA, ESBL E. cloacae, and multidrug resistant Pseudomonas strains including Brazilian clinical isolates of P. aeruginosa that are resistant to meropenem, ceftazidime, piperacillin/tazobactam, ciprofloxacin, cefepime and polymyxin B, and the Liverpool Epidemic Strains. […] Such results characterize the developed peptides as excellent antibiotic candidates, providing new means for treating most dangerous and severe forms of human infections.

[5] = system: MCP-3 release by human PBMC; test: Chemokine induction in PBMC (capture ELISA); assay type: cell-based; details: background (6) subtracted
Outline: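 Human PBMC from healthy donors (Ficoll-isolated), 7.5×10^5 cells at 0.75–1×10^6 cells/ml, treated with peptides at 20 or 100 μg/ml for 24 h at 37° C, 5% CO2. MCP-3 in cell-free supernatants measured by capture ELISA.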

[6] = system: MCP-1 release by human PBMC; test: Chemokine induction in PBMC (capture ELISA); assay type: cell-based; details: background (204) subtracted
Outline: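 Heparinized blood from healthy volunteers; Ficoll-isolated human PBMC (7.5×10^5) treated with peptides at 20 or 100 μg/ml for 24 hours at 37° C, 5% CO2. Cell-free supernatants assayed for MCP-1 by capture ELISA.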

[7] = system: clinical isolates of MRSA; assay type: cell-based, Staphylococcus aureus
Procedure: as §1, §3

[8] = system: Liverpool Epidemic Strains; assay type: cell-based, Pseudomonas aeruginosa
Procedure: as §1, §3

[9] = system: multidrug resistant Brazilian clinical isolates of P. aeruginosa; assay type: cell-based, Pseudomonas aeruginosa
Procedure: as §1, §3

[10] = system: Enterococcus faecalis ATCC29212; assay type: cell-based; details: ATCC29212
Outline: (§4)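 Modified microdilution, MH broth, polypropylene wells. Peptide dilutions (10× stocks in 0.01% HOAc/0.2% BSA) mixed 1:10 with medium; cells 2-7×10^5 CFU/ml; 37° C overnight; endpoint no growth.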

[11] = system: Staphylococcus aureus ATCC25923; assay type: cell-based; details: ATCC25923
Outline: as §4

[12] = system: CXCL1 (Gro-α) release by human PBMC; test: Chemokine induction in PBMC (capture ELISA); assay type: cell-based; details: background (196) subtracted
Outline: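 Human PBMC from healthy donors' heparinised blood (Ficoll), 7.5×10^5 cells treated with 20 or 100 μg/ml peptide for 24 h at 37° C, 5% CO2. Cell-free supernatants assayed for CXCL1 by capture ELISA.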

[13] = system: Pseudomonas aeruginosa PAO1 strain H103; assay type: cell-based
Outline: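 Modified broth microdilution MIC in Mueller Hinton medium, peptides diluted in 0.01% acetic acid/0.2% BSA, polypropylene plates. Inoculum 2-7×10^5 CFU/ml, overnight at 37 °C; MIC is the lowest concentration with no visible growth.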

SMILES | MIC [1] [µM] | MIC [2] [µM] | MIC [3] [µM] | MIC [4] [µM] | Chemokine induction MCP-3 ([5]; 20 μg/ml peptide) [pg/mL] | Chemokine induction MCP-3 ([5]; 100 μg/ml peptide) [pg/mL] | Chemokine induction MCP-1 ([6]; 20 μg/ml peptide) [pg/mL] | Chemokine induction MCP-1 ([6]; 100 μg/ml peptide) [pg/mL] | MIC [7] [µM] | MIC [8] [µM] | MIC [9] [µM] | MIC [10] [µM] | MIC [11] [µM] | Chemokine induction Gro-α ([12]; 20 μg/ml peptide) [pg/mL] | Chemokine induction Gro-α ([12]; 100 μg/ml peptide) [pg/mL] | MIC against P. aeruginosa PAO1 [13] [µM] | antimicrobial activity against P. aeruginosa PAO1 (in words) ([13]; laboratory strain P. aeruginosa PAO1)
CC(C)C[C@H](NC(=O)[C@H](Cc1c[nH]c2ccccc12)NC(=O)[C@H](Cc1c[nH]c2ccccc12)NC(=O)[C@H](CCCCN)NC(=O)[C@H](Cc1c[nH]c2ccccc12)NC(=O)[C@H](CCCNC(=N)N)NC(=O)[C@H](CCCNC(=N)N)NC(=O)[C@H](Cc1c[nH]c2ccccc12)NC(=O)[C@@H](N)CCCNC(=N)N)C(N)=O [HHC9, RWRRWKWWL] (H-RWRRWKWWL-NH2; N-terminus assumed) | 11 (≈ 16.2 µg/mL) | 3 (≈ 4.42 µg/mL) | 0.7 (≈ 1.03 µg/mL) | 6 (≈ 8.83 µg/mL) | -1 | 48 | 9 | 4493 | 3 (≈ 4.42 µg/mL) | 0.3 (≈ 0.442 µg/mL) | 12 (≈ 17.7 µg/mL) | 23 (≈ 33.9 µg/mL) | 3 (≈ 4.42 µg/mL) | -25 | 5 | – | –
CC[C@H](C)[C@H](NC(=O)[C@H](CCCCN)NC(=O)[C@H](Cc1c[nH]c2ccccc12)NC(=O)[C@H](Cc1c[nH]c2ccccc12)NC(=O)[C@H](CCCNC(=N)N)NC(=O)[C@@H](N)Cc1c[nH]c2ccccc12)C(=O)N[C@@H](Cc1c[nH]c2ccccc12)C(=O)N[C@@H](CCCCN)C(=O)N[C@@H](CCCNC(=N)N)C(N)=O [HHC20, WRWWKIWKR] (H-WRWWKIWKR-NH2; N-terminus assumed) | 24 (≈ 34.7 µg/mL) | 6 (≈ 8.66 µg/mL) | 0.8 (≈ 1.16 µg/mL) | 12 (≈ 17.3 µg/mL) | 8 | 12 | 290 | 974 | 3 (≈ 4.33 µg/mL) | 1.5 (≈ 2.17 µg/mL) | 24 (≈ 34.7 µg/mL) | 24 (≈ 34.7 µg/mL) | 3 (≈ 4.33 µg/mL) | 169 | 33 | – | –
N=C(N)NCCC[C@H](NC(=O)[C@H](Cc1c[nH]c2ccccc12)NC(=O)[C@H](CCCCN)NC(=O)[C@H](CCCCN)NC(=O)[C@H](Cc1c[nH]c2ccccc12)NC(=O)[C@H](Cc1c[nH]c2ccccc12)NC(=O)[C@H](CCCNC(=N)N)NC(=O)[C@H](CCCCN)NC(=O)[C@@H](N)Cc1c[nH]c2ccccc12)C(N)=O [HHC45, WKRWWKKWR] (H-WKRWWKKWR-NH2; N-terminus assumed) | 46 (≈ 67.1 µg/mL) | 3 (≈ 4.38 µg/mL) | 1.4 (≈ 2.04 µg/mL) | 93 (≈ 136 µg/mL) | -2 | -2 | -9 | 161 | 6 (≈ 8.75 µg/mL) | 6 (≈ 8.75 µg/mL) | 46 (≈ 67.1 µg/mL) | 93 (≈ 136 µg/mL) | 68 (≈ 99.2 µg/mL) | -15 | -32 | – | –
N=C(N)NCCC[C@H](NC(=O)[C@H](CCCNC(=N)N)NC(=O)[C@H](CCCCN)NC(=O)[C@H](Cc1c[nH]c2ccccc12)NC(=O)[C@H](Cc1c[nH]c2ccccc12)NC(=O)[C@H](CCCCN)NC(=O)[C@H](CCCCN)NC(=O)[C@@H](N)Cc1c[nH]c2ccccc12)C(=O)N[C@@H](Cc1c[nH]c2ccccc12)C(N)=O [HHC48, WKKWWKRRW] (H-WKKWWKRRW-NH2; N-terminus assumed) | 46 (≈ 67.1 µg/mL) | 3 (≈ 4.38 µg/mL) | 1.4 (≈ 2.04 µg/mL) | 23 (≈ 33.6 µg/mL) | -1 | -1 | 2 | 12 | 39 (≈ 56.9 µg/mL) | 6 (≈ 8.75 µg/mL) | 46 (≈ 67.1 µg/mL) | 93 (≈ 136 µg/mL) | 1.4 (≈ 2.04 µg/mL) | -8 | -10 | – | –
CC[C@H](C)[C@H](NC(=O)[C@H](Cc1c[nH]c2ccccc12)NC(=O)[C@H](Cc1c[nH]c2ccccc12)NC(=O)[C@H](CCCCN)NC(=O)[C@H](CC(C)C)NC(=O)[C@H](CCCNC(=N)N)NC(=O)[C@H](CCCCN)NC(=O)[C@@H](N)CCCNC(=N)N)C(=O)N[C@@H](Cc1ccc(O)cc1)C(N)=O [HHC66, RKRLKWWIY] (H-RKRLKWWIY-NH2; N-terminus assumed) | 50 (≈ 67.4 µg/mL) | 6 (≈ 8.09 µg/mL) | 3 (≈ 4.04 µg/mL) | 13 (≈ 17.5 µg/mL) | 0 | 0 | 351 | 355 | 6 (≈ 8.09 µg/mL) | 6 (≈ 8.09 µg/mL) | 50 (≈ 67.4 µg/mL) | 50 (≈ 67.4 µg/mL) | 6 (≈ 8.09 µg/mL) | -12 | -23 | 4 to 12 | –
CC[C@H](C)[C@H](NC(=O)[C@H](CCCCN)NC(=O)[C@H](Cc1c[nH]c2ccccc12)NC(=O)[C@@H](N)CCCCN)C(=O)N[C@@H](Cc1ccccc1)C(=O)N[C@@H](CCCNC(=N)N)C(=O)N[C@@H](CCCNC(=N)N)C(=O)N[C@@H](Cc1c[nH]c2ccccc12)C(=O)N[C@@H](Cc1c[nH]c2ccccc12)C(N)=O [HHC71, KWKIFRRWW] (H-KWKIFRRWW-NH2; N-terminus assumed) | 97 (≈ 136 µg/mL) | 12 (≈ 16.9 µg/mL) | 1.5 (≈ 2.11 µg/mL) | 6 (≈ 8.43 µg/mL) | 0 | 2 | -6 | 99 | 3 (≈ 4.21 µg/mL) | 3 (≈ 4.21 µg/mL) | 24 (≈ 33.7 µg/mL) | 24 (≈ 33.7 µg/mL) | 3 (≈ 4.21 µg/mL) | -17 | 1 | 4 to 12 | –
CC[C@H](C)[C@H](NC(=O)[C@H](C)N)C(=O)N[C@@H](CCCNC(=N)N)C(=O)N[C@@H](CCCNC(=N)N)C(=O)N[C@@H](Cc1c[nH]c2ccccc12)C(=O)N[C@@H](CCCNC(=N)N)C(=O)N[C@H](C(=O)N[C@@H](CCCNC(=N)N)C(=O)N[C@@H](CCCCN)C(N)=O)[C@@H](C)CC [HHC142, AIRRWRIRK] (H-AIRRWRIRK-NH2; N-terminus assumed) | >217 | 108 (≈ 135 µg/mL) | 108 (≈ 135 µg/mL) | 108 (≈ 135 µg/mL) | 1 | 0 | 67 | -16 | 54 (≈ 67.7 µg/mL) | 217 (≈ 272 µg/mL) | >217 | >217 | 54 (≈ 67.7 µg/mL) | 59 | 22 | – | did not return any generally active substances
